Measured values from patent publication US7371779B2, “Synergistic compositions of N-acylhomoserine lactones and 4-quinolones” (The Secretary of State for Defense Science and Technology, priority 2001, dated 2008).
“Also recorded” adds a separate entry of the source.

What was measured:
[1] = system: murine splenocytes; experiment: ConA mitogen-stimulated proliferation of murine splenocytes ([3H]-thymidine incorporation); format: cell-based, mouse (BALB/c); details: for inhibition of ConA induced murine splenocyte proliferation (cpm), in words: ConA 1 μg/ml, BALB/c splenocytes
Method: (§1) Proliferation was assessed by the incorporation of [^3H]-thymidine into DNA. Eight-week-old female BALB/c mice were obtained from Harlan (Bicester, Oxon, UK) and given food and water ad libitum. Splenocyte suspensions were prepared by removing the spleens and placing them into RPMI 1640 medium. The spleens were forced through 70-μm-pore-size wire gauzes using the plunger from a 5-ml syringe to produce a single cell suspension. The cells were pelleted by centrifugation, and erythrocytes were lysed with 0.017 M Tris, 0.144 M ammonium chloride buffer, pH 7.2. Leucocytes were washed twice with RPMI 1640 medium with 2% (vol/vol) foetal calf serum (FCS) and resuspended in complete cell culture medium (CTCM) consisting of RPMI 1640 medium with 5% FCS, 2 mM L-glutamine, and 5×10^−5 M 2-mercaptoethanol. HSL compounds were tested at doubling down dilutions ranging from 1 mM to 0.1 μM in a final volume of 200 μl of CTCM, containing ConA (Sigma, Poole, UK) at 1 μg/ml and 100,000 spleen cells. Following incubation for 48 h at 37° C. in 5% CO2-air, 0.25 μCi [^3H]-thymidine (Amersham) in 10 μl volume made up in RPMI 1640 medium was added and the cells were incubated for a further 24 h. Cells were harvested onto fibreglass filters with a Packard filtermate harvester. After the addition of 25 μl of MicroScint-O (Packard) to each well the filters were counted with the Packard TopCount scintillation counter.
(§2) Mitogen (Concanavalin A) induced murine splenocyte proliferation was indicated by the incorporation of tritated thymidine into the DNA in the mouse spleen cells as shown by counts per minute using the scintillation counter. The inhibitory effect of an HSL compound being tested on cell proliferation was indicated by a reduction in counts per minute.
as §1, with “70 μm pore size” for “70-μm-pore-size”, “5 ml” for “5-ml”, “The title compound was” for “HSL compounds were”, “dilutions” for “dilutions ranging from 1 mM to 0.1 μM in a final volume of 200 μl of CTCM,”, “g/ml” for “μg/ml”, “COrair,” for “CO2-air,”
as §2, with “the title” for “an HSL”

[2] = system: IL-2; experiment: Release of IL-2 from BALB/c splenocytes stimulated with ConA; details: ConA 1 μg/ml
[3] = system: hPBMC; experiment: Cell proliferation of hPBMC stimulated with anti-CD3 and anti-CD28; format: cell-based, human; details: four donors; for inhibition of proliferation of hPBMC stimulated via CD3 and CD28, in words: 0.78125 to 100 μM
Method: Anti-CD3 and anti-CD28 antibodies were used to assess the effect of quorum sensing signal molecules (PQS, OdDHL and OHHL) on T-cell proliferation and IL-2 secretion. Proliferation was assessed by the incorporation of [^3H]-thymidine into the DNA of PBMC and the release of cytokines in the culture supernatants was determined by ‘sandwich’ ELISA. Blood specimens were obtained with consent from four healthy human volunteers (aged between 20 and 50 years). Human PBMC were isolated from heparinised whole blood by buoyant density centrifugation over Histopaque 1077 (Sigma, Poole, UK) at 600 g for 20 minutes. PBMC harvested from the ‘buffy’ layers were washed twice with RPMI 1640 medium and resuspended in complete cell culture medium (CTCM) consisting of RPMI 1640 medium with 5% FCS, 2 mM L-glutamine, and 5×10^−5 M 2-mercaptoethanol. The quorum sensing molecules, of which stock solutions of 0.1 M were soluble in DMSO, were initially diluted into CTCM and then tested in triplicate wells at concentrations ranging from 0.78125 to 100 μM in 200 μl of CTCM, containing 100,000 hPBMC which were challenged with 100 ng/ml of mouse anti-human CD3 monoclonal antibody (clone UCHT1; BD Pharmingen, UK) and 5 μg/ml of mouse anti-human CD28 monoclonal antibody (clone CD28.2; BD Pharmingen, UK). hPBMC were incubated for 24 h at 37° C. in 5% CO2-air and 50 μl of culture supernatants were removed for the determination of IL-2 (see IV.II below). The cells were returned for a further 24 h culture, followed by pulsing with 0.25 μCi [^3H]-thymidine (Amersham) in 10 μl volume made up in RPMI 1640 medium. After a further incubation of 24 h, cells were harvested onto 96-well filter plates (Unifilter Filtermate Harvester™, Packard Bioscience Ltd, UK). Following the addition of 25 μl of scintillant (MicroScint-O™; Packard Bioscience Ltd. UK) to each well in the filter plates, the radioactivity in the filters was measured with a β-scintillation counter (TopCount™, Packard Bioscience Ltd, UK) according to manufacturer's specifications. […]

Structure (SMILES)	effect of OdDHL alone on murine splenocyte proliferation ([1]; 6.25 μM, alone)	IC50 ([1]; ConA 1 μg/ml, 100,000 spleen cells, Experiment I, read-out: IC50 in inhibition of ConA induced murine splenocyte proliferation) [µM]	inhibition of ConA induced murine splenocyte proliferation (cpm), in words ([1]; listed as OdDHL)	inhibition of release of IL-2 from BALB/c splenocytes, in words [2]	inhibition of proliferation of hPBMC stimulated via CD3 and CD28, in words ([3]; listed as OdDHL)	inhibition of ConA induced murine splenocyte proliferation (cpm), in words [1]	inhibition of ConA induced murine splenocyte proliferation (cpm), in words ([1]; listed as 2-heptyl-3-hydroxy-4(1H)quinolone)	potency relative to OdDHL in inhibition of CD3/CD28 stimulated hPBMC proliferation [3]	inhibition of proliferation of hPBMC stimulated via CD3 and CD28, in words [3]
CCCCCCCCCC(=O)CC(=O)N[C@H]1CCOC1=O [Example 6]	inactive	4	inhibits splenocyte proliferation; also recorded: inhibit the proliferation	inhibit the release of IL-2	inhibited, in a dose dependent manner; also recorded: inhibit the proliferation of stimulated hPBMC	–	–	–	–
CCCCCCCc1[nH]c2ccccc2c(=O)c1O [PQS]	–	–	–	inhibit the release of IL-2	–	inhibit the proliferation	inhibits splenocyte proliferation	consistently more potent than OdDHL	inhibited, in a dose dependent manner; also recorded: inhibit the proliferation of stimulated hPBMC
